{
  "source": "ChEMBL document CHEMBL4376815",
  "about": "“The Development Process for Discovery and Clinical Advancement of Modern Antimalarials” (J Med Chem, 2019)",
  "key": {"[1]": {"assay": "Cardiotoxicity in human assessed as effect on QT parameters at 1280 mg", "assay_type": "toxicity"}, "[2]": {"target": "Cytochrome P450 3A4 (Homo sapiens, UniProt P08684)", "sequence (P08684 whole entry)": "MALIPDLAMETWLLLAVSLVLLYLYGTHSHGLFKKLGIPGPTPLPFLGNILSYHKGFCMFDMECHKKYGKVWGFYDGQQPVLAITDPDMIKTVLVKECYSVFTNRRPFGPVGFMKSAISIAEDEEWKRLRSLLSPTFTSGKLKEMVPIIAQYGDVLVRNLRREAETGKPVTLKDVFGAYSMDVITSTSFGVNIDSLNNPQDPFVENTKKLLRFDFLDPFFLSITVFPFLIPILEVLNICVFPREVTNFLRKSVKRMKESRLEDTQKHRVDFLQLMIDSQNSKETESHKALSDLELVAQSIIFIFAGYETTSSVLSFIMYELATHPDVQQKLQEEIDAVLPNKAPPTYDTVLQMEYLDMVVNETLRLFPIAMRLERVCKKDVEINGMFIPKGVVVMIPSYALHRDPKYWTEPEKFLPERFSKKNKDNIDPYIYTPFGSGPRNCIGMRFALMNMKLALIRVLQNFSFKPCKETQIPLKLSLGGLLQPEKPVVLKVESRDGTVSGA", "assay": "Inhibition of CYP3A4 (unknown origin)", "assay_type": "ADME"}, "[3]": {"assay": "Half life in human at 25 to 1200 mg, po measured up to 480 hrs by HPLC-MS/MS analysis", "assay_type": "ADME, organism-based", "details": "in vivo"}, "[4]": {"assay": "AUC (0 to infinity) in human at 25 to 1200 mg, po measured up to 480 hrs by HPLC-MS/MS analysis", "assay_type": "ADME, organism-based", "details": "in vivo"}, "[5]": {"tested_on": "Plasmodium falciparum", "assay": "Antimalarial activity against Plasmodium falciparum 3D7", "assay_type": "functional, organism-based"}, "[6]": {"assay": "Tmax in human at 25 to 1200 mg, po measured up to 480 hrs by HPLC-MS/MS analysis", "assay_type": "ADME, organism-based", "details": "in vivo"}, "[7]": {"tested_on": "Plasmodium falciparum", "assay": "Antimalarial activity against Plasmodium falciparum", "assay_type": "functional, organism-based"}, "[8]": {"target": "Dihydroorotate dehydrogenase (quinone), mitochondrial (Homo sapiens, UniProt Q02127)", "sequence (Q02127 whole entry)": "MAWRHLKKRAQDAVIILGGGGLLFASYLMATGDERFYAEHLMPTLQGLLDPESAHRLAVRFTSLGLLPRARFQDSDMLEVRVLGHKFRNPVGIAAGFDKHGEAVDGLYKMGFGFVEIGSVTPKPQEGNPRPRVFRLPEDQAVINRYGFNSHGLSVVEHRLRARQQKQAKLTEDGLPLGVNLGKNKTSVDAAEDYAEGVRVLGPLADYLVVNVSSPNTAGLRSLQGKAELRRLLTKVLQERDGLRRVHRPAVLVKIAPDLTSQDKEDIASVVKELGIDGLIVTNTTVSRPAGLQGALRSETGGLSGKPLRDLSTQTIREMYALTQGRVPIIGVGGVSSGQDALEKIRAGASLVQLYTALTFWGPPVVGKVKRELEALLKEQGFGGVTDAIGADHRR", "assay": "Inhibition of human DHODH expressed in Escherichia coli using L-dihydroorotate as substrate"}, "[9]": {"target": "T1, Dihydroorotate dehydrogenase (Plasmodium falciparum, UniProt Q54A96)", "T1 sequence (Q54A96 whole entry)": "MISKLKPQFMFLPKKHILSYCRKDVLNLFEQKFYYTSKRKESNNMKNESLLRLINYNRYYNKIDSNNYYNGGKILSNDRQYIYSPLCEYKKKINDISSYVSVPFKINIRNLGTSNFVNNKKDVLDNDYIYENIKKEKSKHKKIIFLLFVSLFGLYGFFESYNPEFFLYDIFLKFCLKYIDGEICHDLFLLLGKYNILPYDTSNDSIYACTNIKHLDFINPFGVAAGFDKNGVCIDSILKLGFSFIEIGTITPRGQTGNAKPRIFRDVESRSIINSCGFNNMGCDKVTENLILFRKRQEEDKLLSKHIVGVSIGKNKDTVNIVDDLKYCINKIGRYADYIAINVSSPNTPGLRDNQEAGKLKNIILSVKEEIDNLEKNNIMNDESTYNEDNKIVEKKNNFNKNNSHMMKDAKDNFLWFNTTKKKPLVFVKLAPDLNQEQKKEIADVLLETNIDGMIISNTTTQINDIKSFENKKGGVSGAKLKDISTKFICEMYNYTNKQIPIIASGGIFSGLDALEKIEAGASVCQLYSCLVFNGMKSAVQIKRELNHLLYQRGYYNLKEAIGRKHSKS", "assay": "Inhibition of Plasmodium falciparum DHODH expressed in Escherichia coli using L-dihydroorotate as substrate"}, "[10]": {"tested_on": "Plasmodium falciparum", "assay": "Antimalarial activity against Plasmodium falciparum asexual blood stage form infected in human assessed as reduction in parasite growth at 250 mg, po measured on day 14 by blood smear based assay relative to control", "assay_type": "functional", "parameters": "scale not given: the % may be the effect or the level left"}, "[11]": {"tested_on": "Plasmodium cynomolgi", "assay": "Antimalarial activity against Plasmodium cynomolgi liver stage form infected in human hepatocytes", "assay_type": "functional, organism-based"}, "[12]": {"tested_on": "Plasmodium falciparum", "assay": "Antimalarial activity against Plasmodium falciparum 3D7 infected in qd administered po dosed NOD-scid IL-2Rgamma null mouse assessed as reduction in parasite growth after 3 day by flow cytometric analysis", "assay_type": "functional"}, "[13]": {"assay": "Half life in monkey at 1 mg/kg, iv by LC-MS analysis", "assay_type": "ADME, organism-based, Macaca mulatta", "details": "rhesus monkey, in vivo"}, "[14]": {"tested_on": "Plasmodium falciparum", "assay": "Antimalarial activity against schizont stage of Plasmodium falciparum clinical isolate", "assay_type": "functional, organism-based"}, "[15]": {"tested_on": "Plasmodium falciparum", "assay": "Antimalarial activity against mefloquine/chloroquine-resistant Plasmodium falciparum asexual blood stage forms assessed as parasite clearance time at 100 times EC50", "assay_type": "functional"}, "[16]": {"assay": "Inhibition of Plasmodium vivax DHODH expressed in Escherichia coli using L-dihydroorotate as substrate"}, "[17]": {"tested_on": "Plasmodium falciparum", "assay": "Antimalarial activity against Plasmodium falciparum asexual blood stage form infected in human assessed as parasite clearance half-life at 150 mg, po after 8 days", "assay_type": "functional, organism-based"}, "[18]": {"target": "Voltage-gated inwardly rectifying potassium channel KCNH2 (Homo sapiens, UniProt Q12809)", "sequence (Q12809 whole entry)": "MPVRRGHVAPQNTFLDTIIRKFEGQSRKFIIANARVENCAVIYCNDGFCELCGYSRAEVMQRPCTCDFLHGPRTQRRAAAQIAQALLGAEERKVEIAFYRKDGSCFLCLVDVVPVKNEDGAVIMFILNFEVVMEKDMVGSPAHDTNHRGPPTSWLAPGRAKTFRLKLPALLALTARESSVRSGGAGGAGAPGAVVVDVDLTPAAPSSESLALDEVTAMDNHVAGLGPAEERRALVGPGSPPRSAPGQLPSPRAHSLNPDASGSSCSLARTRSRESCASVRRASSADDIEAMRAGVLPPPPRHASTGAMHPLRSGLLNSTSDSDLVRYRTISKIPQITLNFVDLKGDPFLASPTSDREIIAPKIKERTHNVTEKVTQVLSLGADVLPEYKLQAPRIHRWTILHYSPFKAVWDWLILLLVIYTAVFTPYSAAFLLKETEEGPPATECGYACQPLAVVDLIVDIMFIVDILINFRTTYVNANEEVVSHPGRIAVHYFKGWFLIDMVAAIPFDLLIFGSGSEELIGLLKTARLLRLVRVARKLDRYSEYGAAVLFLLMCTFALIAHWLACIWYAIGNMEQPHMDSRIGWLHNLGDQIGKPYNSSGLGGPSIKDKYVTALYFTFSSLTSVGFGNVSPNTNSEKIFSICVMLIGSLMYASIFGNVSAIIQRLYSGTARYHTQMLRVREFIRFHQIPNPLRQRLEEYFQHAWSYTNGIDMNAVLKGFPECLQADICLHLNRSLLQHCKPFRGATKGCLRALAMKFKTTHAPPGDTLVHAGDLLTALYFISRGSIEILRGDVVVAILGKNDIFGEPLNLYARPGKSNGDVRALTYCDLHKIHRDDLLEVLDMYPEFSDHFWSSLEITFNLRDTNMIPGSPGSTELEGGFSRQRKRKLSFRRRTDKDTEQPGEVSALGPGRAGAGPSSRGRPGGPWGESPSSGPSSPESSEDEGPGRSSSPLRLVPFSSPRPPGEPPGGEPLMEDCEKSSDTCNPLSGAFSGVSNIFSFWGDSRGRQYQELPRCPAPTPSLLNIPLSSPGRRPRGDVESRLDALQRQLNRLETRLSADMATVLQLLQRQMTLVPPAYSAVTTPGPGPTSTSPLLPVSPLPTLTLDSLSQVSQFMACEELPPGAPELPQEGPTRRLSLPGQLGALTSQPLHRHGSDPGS", "assay": "Inhibition of human ERG by patch clamp method"}, "[19]": {"assay": "Plasma clearance in Beagle dog at 1 mg/kg, iv by LC-MS analysis", "assay_type": "ADME, organism-based, Canis lupus familiaris"}, "[20]": {"tested_on": "Plasmodium vivax", "assay": "Antimalarial activity against schizont stage of Plasmodium vivax clinical isolate", "assay_type": "functional, organism-based"}, "[21]": {"tested_on": "Plasmodium falciparum", "assay": "Antimalarial activity against mefloquine/chloroquine-resistant Plasmodium falciparum asexual blood stage forms assessed as parasite clearance time at 10 times EC50", "assay_type": "functional"}, "[22]": {"assay": "Plasma clearance in monkey at 1 mg/kg, iv by LC-MS analysis", "assay_type": "ADME, organism-based, Macaca mulatta", "details": "rhesus monkey"}, "[23]": {"assay": "Cmax in human at 25 to 1200 mg, po measured up to 480 hrs by HPLC-MS/MS analysis", "assay_type": "ADME, organism-based", "details": "in vivo"}, "[24]": {"assay": "Half life in Beagle dog at 1 mg/kg, iv by LC-MS analysis", "assay_type": "ADME, organism-based, Canis lupus familiaris", "details": "in vivo"}, "[25]": {"tested_on": "Plasmodium falciparum", "assay": "Antimalarial activity against Plasmodium falciparum asexual blood stage form infected in human assessed as reduction in parasite growth after 10 to 22 days", "assay_type": "functional"}, "[26]": {"tested_on": "Plasmodium falciparum", "assay": "Antimalarial activity against Plasmodium falciparum asexual blood stage form infected in human assessed as parasite clearance half-life", "assay_type": "functional, organism-based"}, "[27]": {"tested_on": "Plasmodium falciparum", "assay": "Antimalarial activity against Plasmodium falciparum asexual blood stage form infected in human assessed as reduction in parasite growth at 400 mg, po measured on day 14 by qPCR analysis relative to control", "assay_type": "functional", "parameters": "scale not given: the % may be the effect or the level left"}, "[28]": {"tested_on": "Plasmodium falciparum", "assay": "Antimalarial activity against Plasmodium falciparum asexual blood stage form infected in human assessed as reduction in parasite growth at 400 mg, po measured on day 14 by blood smear based assay relative to control", "assay_type": "functional", "parameters": "scale not given: the % may be the effect or the level left"}, "[29]": {"tested_on": "Plasmodium falciparum", "assay": "Antimalarial activity against Plasmodium falciparum NF54 liver stage form schizonts infected in human hepatocytes assessed as EEF diameter", "assay_type": "functional, organism-based"}, "[30]": {"tested_on": "Plasmodium falciparum", "assay": "Antimalarial activity against Plasmodium falciparum 3D7 infected in bid administered po dosed NOD-scid IL-2Rgamma null mouse assessed as reduction in parasite growth after 3 day by flow cytometric analysis", "assay_type": "functional"}, "[31]": {"assay": "AUC in monkey at 1 mg/kg, iv by LC-MS analysis", "assay_type": "ADME, organism-based, Macaca mulatta", "details": "rhesus monkey, in vivo"}, "[32]": {"tested_on": "Plasmodium falciparum", "assay": "Antimalarial activity against Plasmodium falciparum asexual blood stage form infected in human assessed as reduction in parasite growth at 400 mg, po after 72 hrs by blood smear based assay relative to control", "assay_type": "functional", "parameters": "scale not given: the % may be the effect or the level left"}, "[33]": {"tested_on": "Plasmodium falciparum", "assay": "Antimalarial activity against mefloquine/chloroquine-resistant Plasmodium falciparum asexual blood stage forms", "assay_type": "functional, organism-based"}, "[34]": {"assay": "AUC in Beagle dog at 1 mg/kg, iv by LC-MS analysis", "assay_type": "ADME, organism-based, Canis lupus familiaris", "details": "in vivo"}, "[35]": {"tested_on": "Plasmodium vivax", "assay": "Antimalarial activity against Plasmodium vivax infected in human erythrocytes assessed as reduction in [3H]-hypoxanthine incorporation incubated for 40 hrs followed by addition of [3H]-hypoxanthine and measured after 4 hrs by liquid scintillation counting method", "assay_type": "functional, organism-based"}, "[36]": {"details": "Plasmodium falciparum, 3D7, po, 72 h"}},
  "data": [
    {"smiles": "Clc1ccc2c(N3CCN(CCCN4CCN(c5ccnc6cc(Cl)ccc56)CC4)CC3)ccnc2c1", "note": "[PIPERAQUINE]", "values": [
      {"measurement": "Activity", "setting": "[1]", "result": 79.2, "unit": "%"},
      {"measurement": "Ki", "setting": "[2]", "result": 90, "unit": "nM"}
    ]},
    {"smiles": "CC(F)(F)c1nc2nc(CO)cc(Nc3ccc(S(F)(F)(F)(F)F)cc3)n2n1", "values": [
      {"measurement": "half-life", "setting": "[3]", "result": "98 to 164", "unit": "h"},
      {"measurement": "AUC(0-inf)", "setting": "[4]", "result": "167 to 1170", "unit": "µg·h/mL"},
      {"measurement": "EC50", "setting": "[5]", "result": 1800, "unit": "nM"},
      {"measurement": "Tmax", "setting": "[6]", "result": "95 to 143", "unit": "h"}
    ]},
    {"smiles": "Cc1cc(Nc2ccc(S(F)(F)(F)(F)F)c(F)c2)n2nc(C(C)(F)F)nc2n1", "values": [
      {"measurement": "EC50", "setting": "[7]", "result": 2, "unit": "nM"},
      {"measurement": "IC50", "setting": "[8]", "result": 3700, "unit": "nM"},
      {"measurement": "IC50", "setting": "[9]", "result": 10, "unit": "nM"}
    ]},
    {"smiles": "Cc1cc(Nc2ccc(S(F)(F)(F)(F)F)cc2)n2nc(C(C)(F)F)nc2n1", "note": "[DSM-265]", "values": [
      {"measurement": "Activity", "setting": "[10]", "result": 88, "unit": "%"},
      {"measurement": "half-life", "setting": "[3]", "result": "86 to 118", "unit": "h"},
      {"measurement": "AUC(0-inf)", "setting": "[4]", "result": "107 to 4720", "unit": "µg·h/mL"},
      {"measurement": "EC50", "setting": "[11]", "result": 0.13, "unit": "µg/mL"},
      {"measurement": "MIC", "setting": "[12]", "result": 13, "unit": "mg/kg"},
      {"measurement": "ED90", "setting": "[12]; [36]", "result": 3, "unit": "mg/kg"},
      {"measurement": "half-life", "setting": "[13]", "result": "10 to 45", "unit": "h"},
      {"measurement": "EC50", "setting": "[14]", "result": 918, "unit": "nM"},
      {"measurement": "Time", "setting": "[15]", "result": 82, "unit": "h"},
      {"measurement": "EC50", "setting": "[16]", "result": 20, "unit": "nM"},
      {"measurement": "T1/2", "setting": "[17]", "result": 9.4, "unit": "h"},
      {"measurement": "IC50", "setting": "[18]", "result": "1590 to 6980", "unit": "nM"},
      {"measurement": "clearance", "setting": "[19]", "result": "0.367 to 0.9", "unit": "mL/min/kg"},
      {"measurement": "EC50", "setting": "[20]", "result": 190, "unit": "nM"},
      {"measurement": "Time", "setting": "[21]", "result": 85, "unit": "h"},
      {"measurement": "clearance", "setting": "[22]", "result": "0.367 to 0.9", "unit": "mL/min/kg"},
      {"measurement": "Cmax", "setting": "[23]", "result": "1310 to 34800", "unit": "ng/mL"},
      {"measurement": "half-life", "setting": "[24]", "result": "10 to 45", "unit": "h"},
      {"measurement": "MIC", "setting": "[25]", "result": 1.04, "unit": "µg/mL"},
      {"measurement": "T1/2", "setting": "[26]", "result": 5, "unit": "h"},
      {"measurement": "Activity", "setting": "[27]", "result": 100, "unit": "%"},
      {"measurement": "Activity", "setting": "[28]", "result": 100, "unit": "%"},
      {"measurement": "EC50", "setting": "[29]", "result": 0.0057, "unit": "µg/mL"},
      {"measurement": "Tmax", "setting": "[6]", "result": "1.5 to 4", "unit": "h"},
      {"measurement": "MIC", "setting": "[30]", "result": 6.4, "unit": "mg/kg"},
      {"measurement": "ED90", "setting": "[30]; [36]", "result": 1.5, "unit": "mg/kg"},
      {"measurement": "AUC", "setting": "[31]", "result": "16.7 to 46.9", "unit": "µg·h/mL"},
      {"measurement": "Activity", "setting": "[32]", "result": 100, "unit": "%"},
      {"measurement": "EC50", "setting": "[33]", "result": "7 to 16", "unit": "nM"},
      {"measurement": "AUC", "setting": "[34]", "result": "16.7 to 46.9", "unit": "µg·h/mL"},
      {"measurement": "EC50", "setting": "[35]", "result": 529, "unit": "nM"}
    ]}
  ]
}
